{
  "source": "patent US12507703B2",
  "about": "“Methods, devices and compositions for preserving human milk” (The Trustees of Princeton University, priority 2023, dated 2025)",
  "note": "Values joined by “and” are separate entries in the source; they are usually repeats but may differ in a detail not shown here. Identical values can stand only once.",
  "data": [
    {"system": "lipase", "assay": "Lipase/lipolysis assay (EnzChek Lipase Substrate, quenched BODIPY-fatty acid conjugate) on stored human milk; also: test concentration or dose not given here", "values": [
      {"compound": "N[C@@H](CNC(=O)C(=O)O)C(=O)O", "note": "[Dencichine]", "Lipase (RFU)": "1365.261 RFU"},
      {"compound": "C[C@]12CC[C@H]3[C@@H](CCC4=CC(=O)CC[C@@]43C)[C@@H]1CC[C@@H]2C(=O)CO", "note": "[Deoxycorticosterone]", "Lipase (RFU)": "992.8813 RFU"},
      {"compound": "C=CCSSCC=C", "note": "[Diallyl disulfide]", "Lipase (RFU)": "1000.398 RFU and 1055.55 RFU"},
      {"compound": "c1ccc(CSSCc2ccccc2)cc1", "note": "[Dibenzyl disulfide]", "Lipase (RFU)": "1113.399 RFU"},
      {"compound": "COc1ccc([C@@H]2CC(=O)c3c(O)cc(O[C@@H]4O[C@H](CO[C@@H]5O[C@@H](C)[C@H](O)[C@@H](O)[C@H]5O)[C@@H](O)[C@H](O)[C@H]4O)cc3O2)cc1", "note": "[Didymin]", "Lipase (RFU)": "1064.164 RFU"},
      {"compound": "CCOP(=O)(O)OCC", "note": "[Diethyl phosphate]", "Lipase (RFU)": "1033.984 RFU"},
      {"compound": "C[C@H]1O[C@@H](O[C@H]2[C@@H](O)C[C@H](O[C@H]3[C@@H](O)C[C@H](O[C@H]4CC[C@@]5(C)[C@H](CC[C@@H]6[C@@H]5CC[C@]5(C)[C@@H](C7=CC(=O)OC7)CC[C@]65O)C4)O[C@@H]3C)O[C@@H]2C)C[C@H](O)[C@@H]1O", "note": "[Digitoxin]", "Lipase (RFU)": "1074.946 RFU"},
      {"compound": "COc1cc(CCCO)ccc1O", "note": "[Dihydroconiferyl alcohol]", "Lipase (RFU)": "1331.121 RFU"},
      {"compound": "COc1cc(/C=C/C(=O)CC(=O)CCc2ccc(O)c(OC)c2)ccc1O", "note": "[Dihydrocurcumin]", "Lipase (RFU)": "1140.2 RFU"},
      {"compound": "O=C1c2ccc(O)cc2OCC1c1ccc(O)cc1", "note": "(centres unmarked) [Dihydrodaidzein]", "Lipase (RFU)": "682.5875 RFU"},
      {"compound": "CCCCCC1=C(C)CCC1=O", "note": "[Dihydrojasmone]", "Lipase (RFU)": "884.3631 RFU"},
      {"compound": "CC(C)(C(=O)O)C(=O)O", "note": "[Dimethylmalonic acid]", "Lipase (RFU)": "890.7612 RFU"},
      {"compound": "C[C@@]12C[C@H](c3ccoc3)O[C@@]13C[C@H](OC3=O)[C@H]1[C@H]2C[C@@H]2C[C@H]1C(=O)O2", "note": "[Diosbulbin B]", "Lipase (RFU)": "951.5417 RFU"},
      {"compound": "C[C@@H]1CC[C@@]2(OC1)O[C@H]1C[C@H]3[C@@H]4CC=C5C[C@@H](O[C@@H]6O[C@H](CO)[C@@H](O)[C@H](O)[C@H]6O)CC[C@]5(C)[C@H]4CC[C@]3(C)[C@H]1[C@@H]2C", "note": "[Diosgenin glucoside]", "Lipase (RFU)": "1057.302 RFU"},
      {"compound": "CC1(C)[C@@H](O[C@H]2O[C@H](C(=O)[O-])[C@@H](O)[C@H](O)[C@H]2O[C@@H]2O[C@H](C(=O)[O-])[C@@H](O)[C@H](O)[C@H]2O)CC[C@]2(C)[C@H]3C(=O)C=C4[C@@H]5C[C@@](C)(C(=O)O)CC[C@]5(C)CC[C@@]4(C)[C@]3(C)CC[C@@H]12.[K+].[K+]", "note": "[Dipotassium glycyrrhizinate]", "Lipase (RFU)": "813.8172 RFU and 1090.475 RFU"},
      {"compound": "O=P([O-])([O-])OP(=O)(O)O.[Na+].[Na+]", "note": "[Disodium pyrophosphate]", "Lipase (RFU)": "1213.966 RFU"},
      {"compound": "CC/C=C\\C/C=C\\C/C=C\\C/C=C\\C/C=C\\CCCCCC(=O)O", "note": "[Docosapentaenoic acid (22n-3)]", "Lipase (RFU)": "931.501 RFU"},
      {"compound": "CCCCCCCCCCCC(=O)O[C@H](CC(=O)[O-])C[N+](C)(C)C", "note": "[Dodecanoylcarnitine]", "Lipase (RFU)": "868.7983 RFU"},
      {"compound": "CCO.C[C@H]1c2cccc(O)c2C(O)=C2C(=O)[C@]3(O)C(O)=C(C(N)=O)C(=O)[C@@H](N(C)C)[C@@H]3[C@@H](O)[C@@H]21.C[C@H]1c2cccc(O)c2C(O)=C2C(=O)[C@]3(O)C(O)=C(C(N)=O)C(=O)[C@@H](N(C)C)[C@@H]3[C@@H](O)[C@@H]21.Cl.Cl.O", "note": "[Doxycycline (hyclate)]", "Lipase (RFU)": "757.6717 RFU"},
      {"compound": "OC[C@@H](O)[C@H](O)[C@H](O)[C@@H](O)CO", "note": "[Dulcite]", "Lipase (RFU)": "1020.567 RFU"},
      {"compound": "OC[C@@H](O)[C@H](O)[C@H](O)[C@@H](O)CO", "note": "[Dulcitol]", "Lipase (RFU)": "642.9411 RFU"},
      {"compound": "Cc1cc(O)c2c(c1)C(=O)c1cc(O)cc(O[C@@H]3O[C@H](CO)[C@@H](O)[C@H](O)[C@H]3O)c1C2=O", "note": "[Emodin-1-O-β-D-glucopyranoside]", "Lipase (RFU)": "964.8621 RFU"},
      {"compound": "Cc1cc(O[C@@H]2O[C@H](CO)[C@@H](O)[C@H](O)[C@H]2O)c2c(c1)C(=O)c1cc(O)cc(O)c1C2=O", "note": "[Emodin-8-glucoside]", "Lipase (RFU)": "1174.326 RFU"},
      {"compound": "C[C@]12CC[C@H](O)C[C@@H]1CC[C@@H]1[C@@H]2CC[C@]2(C)C(=O)CC[C@@H]12", "note": "[Epiandrosterone]", "Lipase (RFU)": "760.9004 RFU"},
      {"compound": "CC(C)[C@@H](C)[C@@H](O)[C@H](O)[C@@H](C)[C@H]1CC[C@H]2[C@@H]3COC(=O)[C@H]4C[C@H](O)[C@H](O)C[C@]4(C)[C@H]3CC[C@]12C", "note": "[Epibrassinolide]", "Lipase (RFU)": "830.2794 RFU"},
      {"compound": "O=C1C[C@@H](c2ccc(O)c(O)c2)Oc2cc(O[C@@H]3O[C@H](CO)[C@@H](O)[C@H](O)[C@H]3O)cc(O)c21", "note": "[Eriodictyol-7-O-glucoside]", "Lipase (RFU)": "982.3042 RFU"},
      {"compound": "O=C1O[C@H]([C@H](O)CO)C(O)=C1O", "note": "[Erythorbic acid]", "Lipase (RFU)": "1131.679 RFU"},
      {"compound": "COC(=O)[C@@]1(C)CC[C@]2(C(=O)O)CC[C@]3(C)C(=CC[C@@H]4[C@@]5(C)C[C@H](O)[C@H](O[C@@H]6OC[C@@H](O[C@@H]7O[C@H](CO)[C@@H](O)[C@H](O)[C@H]7O)[C@H](O)[C@H]6O)[C@@](C)(CO)[C@@H]5CC[C@]43C)[C@@H]2C1", "note": "[Esculentoside A]", "Lipase (RFU)": "755.0304 RFU"},
      {"compound": "COC(=O)[C@]1(C)CC[C@]2(C(=O)O[C@@H]3O[C@H](CO)[C@@H](O)[C@H](O)[C@H]3O)CC[C@]3(C)C(=CC[C@@H]4[C@@]5(C)C[C@H](O)[C@H](O[C@@H]6OC[C@@H](O[C@@H]7O[C@H](CO)[C@@H](O)[C@H](O)[C@H]7O)[C@H](O)[C@H]6O)[C@@](C)(CO)C5CC[C@]43C)[C@H]2C1", "note": "(some centres unmarked) [Esculentoside H]", "Lipase (RFU)": "1175.483 RFU"},
      {"compound": "O=c1ccc2cc(O[C@@H]3O[C@H](CO)[C@@H](O)[C@H](O)[C@H]3O)c(O)cc2o1", "note": "[Esculin]", "Lipase (RFU)": "1207.652 RFU"},
      {"compound": "C=CCc1ccc(OC)cc1", "note": "[Estragole]", "Lipase (RFU)": "655.6447 RFU and 832.8206 RFU"},
      {"compound": "CCOC(=O)c1ccc(O)c(OC)c1", "note": "[Ethyl Vanillate]", "Lipase (RFU)": "981.4431 RFU"},
      {"compound": "CCO[C@@H]1O[C@H](C(=O)O)[C@@H](O)[C@H](O)[C@H]1O", "note": "[Ethyl glucuronide]", "Lipase (RFU)": "1053.076 RFU"},
      {"compound": "C[C@]12CC[C@@H](O)C[C@H]1CC[C@@H]1[C@@H]2CC[C@]2(C)C(=O)CC[C@@H]12", "note": "[Etiocholanolone]", "Lipase (RFU)": "868.806 RFU"},
      {"compound": "C=C[C@@H](O)C#CC#C[C@@H](O)/C=C\\CCCCCCC", "note": "[Falcarindiol]", "Lipase (RFU)": "827.8455 RFU"},
      {"compound": "CCN(Cc1cccc(S(=O)(=O)[O-])c1)c1ccc(C(=C2C=CC(=[N+](CC)Cc3cccc(S(=O)(=O)[O-])c3)C=C2)c2ccc(O)cc2S(=O)(=O)[O-])cc1.[Na+].[Na+]", "note": "[Fast Green FCF]", "Lipase (RFU)": "896.2144 RFU"},
      {"compound": "CSCC[C@H](NC=O)C(=O)O", "note": "[For-Met-OH]", "Lipase (RFU)": "819.8295 RFU"},
      {"compound": "O=CO", "note": "[Formic Acid]", "Lipase (RFU)": "1027.958 RFU"},
      {"compound": "COc1cc2oc(=O)ccc2c(OC)c1O", "note": "[Fraxinol]", "Lipase (RFU)": "772.0122 RFU"},
      {"compound": "COc1cc2oc3cc(OC)c(OC)c(CC=C(C)C)c3c(=O)c2c(O)c1CC=C(C)C", "note": "[Fuscaxanthone C]", "Lipase (RFU)": "819.3619 RFU"},
      {"compound": "O=P([O-])([O-])O[C@H]1O[C@H](CO)[C@H](O)[C@H](O)[C@H]1O.[K+].[K+]", "note": "[Galactose 1-phosphate Potassium salt]", "Lipase (RFU)": "1112.021 RFU"},
      {"compound": "O.O=C(O)c1cc(O)c(O)c(O)c1", "note": "[Gallic acid (hydrate)]", "Lipase (RFU)": "709.0148 RFU"},
      {"compound": "O=Cc1cc(O)c(O)c(O)c1", "note": "[Gallic aldehyde]", "Lipase (RFU)": "942.9255 RFU"},
      {"compound": "CC(C)=CCc1c(O)cc2oc3cc(O)c(O)c(CC=C(C)C)c3c(=O)c2c1O", "note": "[Gamma-Mangostin]", "Lipase (RFU)": "1083.745 RFU"}
    ]}
  ]
}
